In series [1] the test system is human triple-negative MDA-MB-231 breast cancer cells. Kind of series: MTT cell viability, MDA-MB-231. In kind it is cell-based. As to conditions: MDA-MB-231, 48 h, up to 30 µM. How it is done: (§1) MDA-MB-231 and LX2 cells were seeded in triplicate in 96-well plates at a density of 20,000 cells per well in 100 μL of medium and allowed to attach for 24 h at 37 °C and 5% CO2. Compounds were added at a final DMSO concentration of 0.5%, and cells were incubated for an additional 48 h. The pan-kinase inhibitor staurosporine (1 µM, Merck) was used as a reference compound, and the concentration was selected to efficiently induce cell death (≥90%). […]. The concentrations of Q-VD-OPh and ferrostatin-1 were chosen based on commonly applied ranges reported in the literature and were further optimized in preliminary experiments using the apoptosis inducers etoposide and staurosporine, as well as the ferroptosis inducer RSL3, to ensure suppression of apoptosis and ferroptosis, respectively. […] For the MTT assay, 20 µL of 3-(4,5-dimethylthiazol-2-yl)-2,5-diphenyltetrazolium bromide (MTT, 5 mg/mL in PBS pH = 7.4, sterile-filtered, Merck) solution was added to each well, and the cells were incubated for 1.5 h. […] Absorbance was measured at 570 nm using a SpectraMax iD3 plate reader (Molecular Devices). Absorbance values from ethanol-treated cells were used for background subtraction, and cell viability was expressed as percentage relative to the vehicle control (DMSO). […]

In series [2] the test system is Human MDA-MB-231 breast cancer cells. Format: cell-based. How it is done:
MDA-MB-231 and LX2 cells were seeded in triplicate in 96-well plates at a density of 20,000 cells per well in 100 μL of medium and allowed to attach for 24 h at 37 °C and 5% CO2. Compounds were added at a final DMSO concentration of 0.5%, and cells were incubated for an additional 48 h. The pan-kinase inhibitor staurosporine (1 µM, Merck) was used as a reference compound, and the concentration was selected to efficiently induce cell death (≥90%). […]. The concentrations of Q-VD-OPh and ferrostatin-1 were chosen based on commonly applied ranges reported in the literature and were further optimized in preliminary experiments using the apoptosis inducers etoposide and staurosporine, as well as the ferroptosis inducer RSL3, to ensure suppression of apoptosis and ferroptosis, respectively. […] Absorbance was measured at 570 nm using a SpectraMax iD3 plate reader (Molecular Devices). Absorbance values from ethanol-treated cells were used for background subtraction, and cell viability was expressed as percentage relative to the vehicle control (DMSO). […]
Cells were treated with vehicle (0.5% DMSO) or compounds at different concentrations (0.3, 1, 3, 10, and 30 μM) for 48 h. Cell viability measured by MTT assay. […]

The next series deals with MDA-MB-231 cells. In words: Inhibition of RSL3-induced ferroptotic cell death (MTT). Format: cell-based, human. As to conditions: at either 3 or 30 μM, RSL3 0.3 µM. How it is done: The anti-ferroptotic properties of the compounds were evaluated in MDA-MB-231 cells. Cells were seeded in 96-well plates at a density of 20,000 cells per well in 100 μL of medium. After 24 h at 37 °C and 5% CO2, cells were treated with the vehicle (0.5% DMSO) or the compounds at 3 µM and 30 µM alone or in combination with RSL3 (0.3 μM, Cayman Chemicals) for an additional 48 h. The cellular dehydrogenase activity was assessed by the reduction of MTT, as described in Section 2.4.
Radar plot illustrating cell viability measured by MTT assay. […] Data are presented as the mean of n = 3 independent experiments. * p < 0.05, ** p < 0.01; paired Student’s t-test.

Another series deals with human LX2 stellate cells. In words: MTT cell viability, LX2. In kind it is cell-based. As to conditions: LX2, 48 h, up to 30 µM. How it is done: as §1
A short description of series [3]: DPPH radical scavenging assay. The note with it: read-out: DPPH (EC50). (In general: DPPH is a stable violet radical that fades when it is reduced.)
For series [4] the following is noted: TE: Trolox equivalent.

This is an account of results in article PMC12024457 (Antioxidants, 2025).

One may read the EC50 as the concentration that produces a half-maximal response.

SMILES strings stand for the structures.

Turning to `COc1cc(/C=C/C(=O)CC(=O)/C=C/c2ccc(O)c(OC)c2)ccc1O` [Curcumin], the concentration for a half-maximal effect (EC50) is 20 µM in series [1] and 23 µM with human LX2 stellate cells. The “effect of ferroptosis inhibitor Fer-1 on compound-induced cell death” value in series [2] (Fer-1 10 μM, 48 h) is on record as “partially attenuated by Fer-1”. In series [2] (human), the “effect of apoptosis inhibitor Q-VD on compound-induced cell death” value is reported as “tendentially by Q-VD”. Also, in the series on MDA-MB-231 cells, the “cytoprotective effects against RSL3-induced ferroptosis” value was “did not exhibit cytoprotective effects”.

Regarding `OCCc1ccc(O)c(O)c1` [HTYR, 3-hydroxy-tyrosol], the EC50 in series [3] came to 12.3 ± 1 µM. In addition, the “ORAC (TE)” value in series [4] was 7.40 ± 0.17 TE.

With `COc1ccc2[nH]cc(CCO)c2c1` [MEL, 5-methoxytryptophol], the EC50 in series [3] is greater than 1000 µM. The “ORAC (TE)” value in series [4] came out at 2.23 ± 0.12 TE.

In the case of `COc1cc(CCO)ccc1O` [MTYR, 3-methoxy-tyrosol], the EC50 in series [3] was determined as 31 ± 2.6 µM. Moreover, the “ORAC (TE)” value in series [4] came out at 2.90 ± 0.21 TE.

For the compound `OCCc1ccc(O)cc1` [TYR, tyrosol], the half-maximal effective concentration (EC50) in series [3] is greater than 1000 µM. Besides, the “ORAC (TE)” value in series [4] worked out at 2.18 ± 0.12 TE.
